Experimental data: patent publication US9957257B2, “Amide compounds as 5-HT4 receptor agonists” (SUVEN LIFE SCIENCES LIMITED, priority 2015, dated 2018)
Several values for one entry are separate records, joined by “and”; a condition that tells them apart may be missing. Identical values can stand only once. Counter-ions that a name gives are not always drawn.

Key:
[1] = target: T1, recombinant human 5-HT4 receptor (Homo sapiens, UniProt Q13639); assay: Determination of EC50 values for 5-HT4 receptor (CHO cells, pCRE-Luc reporter); format: cell-based; details: luciferase reporter, 4 hours incubation, read-out: 5-HT4 receptor agonistic binding in-vitro EC50
T1 construct: expressed in transfected cells
Procedure: A stable CHO cell line expressing recombinant human 5-HT4 receptor and pCRE-Luc reporter system was used for cell-based assay. The assay offers a non-radioactive based approach to determine binding of a compound to GPCRs. In this specific assay, the level of intracellular cyclic AMP, which is modulated by activation, or inhibition of the receptor is measured. The recombinant cells harbor luciferase reporter gene under the control of cAMP response element.
The above cells were grown in 96 well clear bottom white plates in Hams F12 medium containing 10% fetal bovine serum (FBS). Prior to the addition of compounds or standard agonist, cells were serum starved overnight. Increasing concentrations of test compounds were added in OptiMEM medium to the cells. The incubation was continued at 37° C. in CO2 incubator for 4 hours. Medium was removed and cells were washed with phosphate buffered saline. The cells were lysed and luciferase activity was measured in a Luminometer. Luminescence units were plotted against the compound concentrations using Graphpad software. EC50 values of the compounds were defined as the concentration required in stimulating the luciferase activity by 50%.

[2] = Object recognition task model; format: in vivo, Male Wistar rats; details: 3 mg/kg, p.o.
Procedure: The cognition enhancing properties of compounds of this invention were estimated by using this model.
Male Wistar rats (230-280 grams) were used as experimental animals. Four animals were housed in each cage. Animals were kept on 20% food deprivation before one day and given water ad libitum throughout the experiment and maintained on a 12 hours light/dark cycle. Also the rats were habituated to individual arenas for 1 hour in the absence of any objects.
One group of 12 rats received vehicle (1 mL/Kg) orally and another set of animals received compound of the formula (I) either orally or i.p., before one hour of the familiar (T1) and choice trial (T2).
The experiment was carried out in a 50×50×50 cm open field made up of acrylic. In the familiarization phase, (T1), the rats were placed individually in the open field for 3 minutes, in which two identical objects (plastic bottles, 12.5 cm height×5.5 cm diameter) covered in yellow masking tape alone (a1 and a2) were positioned in two adjacent corners, 10 cms from the walls. After 24 hours of the (T1) trial for long-term memory test, the same rats were placed in the same arena as they were placed in T1 trial. Choice phase (T2) rats were allowed to explore the open field for 3 minutes in presence of one familiar object (a3) and one novel object (b) (Amber color glass bottle, 12 cm high and 5 cm in diameter). Familiar objects presented similar textures, colors and sizes. During the T1 and T2 trial, explorations of each object (defined as sniffing, licking, chewing or having moving vibrissae whilst directing the nose towards the object at a distance of less than 1 cm) were recorded separately by stopwatch. Sitting on an object was not regarded as exploratory activity, however, it was rarely observed.
T1 is the total time spent exploring the familiar objects (a1+a2).
T2 is the total time spent exploring the familiar object and novel object (a3+b).
The object recognition test was performed as described by Behaviour Brain Research, 31 (1988), 47-59.

[3] = Rodent pharmacokinetic study; format: in vivo, Male wistar rats; details: male, Wistar, plasma, rat
Procedure: Male wistar rats (225±25 grams) were used as experimental animals. Three to five animals were housed in each cage. Two days prior to dosing day, male wistar rats (225-250 grams) were anesthetized with isoflurane for surgical placement of jugular vein catheter. Animals were fasted overnight before oral dosing (p.o) and food pellets were allowed 2 hours post dosing, whereas during intravenous dosing food and water were provided as ad libitum. Three rats were dosed with test compounds (3 mg/kg) orally and intravenously (1 mg/kg).
At each time point blood was collected through jugular vein and immediately replenish with an equivalent volume of normal saline from freely moving rats. Collected blood was transferred into a labeled eppendr off containing 10 μL of heparin as anticoagulant. Typically blood samples were collected as following time points: Pre dose, 0.08 (only i.v.), 0.25, 0.5, 1, 2, 4, 6, 8, and 24 hours post dose-(n=3). Blood was centrifuged at 4000 rpm for 10 minutes. Plasma was prepared and stored frozen at −20° C. until analysis. The concentrations of the test compounds were quantified in plasma by qualified LC-MS/MS method using suitable extraction technique. The test compounds were quantified in the calibration range around 2-2000 ng/mL in plasma. Study samples were analyzed using calibration samples in the batch and quality control samples spread across the batch.
Pharmacokinetic parameters Cmax, Tmax, AUCt, T1/2 and Bioavailability were calculated by non-compartmental model using standard non-compartmental model by using WinNonLin 5.0.1 or Phoenix WinNonlin 6.2 version Software package.

[4] = Rodent brain penetration study; format: in vivo, Male Wistar rats; details: male, Wistar, rat, 3 mg/kg, oral (gavage), read-out: Single dose Brain Penetration (Cb/Cp)
Procedure: Male Wistar rats (225±25 grams) were used as experimental animals. Three animals were housed in each cage. Animals were given water and food ad libitum throughout the experiment and maintained on a 12 hours light/dark cycle. Brain penetration was determined in discrete manner in rats. One day prior to dosing day, male wistar rats (225-250 grams) were acclimatized. After acclimatization the rats were grouped according to their weight. In each group, 3 animals were kept in individual cage and allowed free access to food and water. At each time point (0.50, 1 and 2 hours) n=3 animals were used. The test compounds were suitably preformulated and administered orally at (free base equivalent) 3 mg/kg. Blood samples were removed via, cardiac puncture by using isoflurane anesthesia. The animals were sacrificed to collect brain tissue. Plasma was separated and brain samples were homogenized and stored frozen at −20° C. until analysis. The concentrations of the test compounds in plasma and brain were determined using LC-MS/MS method. The test compounds were quantified in plasma and brain homogenate by qualified LC-MS/MS method using suitable extraction technique. The test compounds were quantified in the calibration range of 1-500 ng/mL in plasma and brain homogenate. Study samples were analyzed using calibration samples in the batch and quality control samples spread across the batch. Extent of brain-plasma ratio was calculated (Cb/Cp).

T1 sequence (Q13639 whole entry): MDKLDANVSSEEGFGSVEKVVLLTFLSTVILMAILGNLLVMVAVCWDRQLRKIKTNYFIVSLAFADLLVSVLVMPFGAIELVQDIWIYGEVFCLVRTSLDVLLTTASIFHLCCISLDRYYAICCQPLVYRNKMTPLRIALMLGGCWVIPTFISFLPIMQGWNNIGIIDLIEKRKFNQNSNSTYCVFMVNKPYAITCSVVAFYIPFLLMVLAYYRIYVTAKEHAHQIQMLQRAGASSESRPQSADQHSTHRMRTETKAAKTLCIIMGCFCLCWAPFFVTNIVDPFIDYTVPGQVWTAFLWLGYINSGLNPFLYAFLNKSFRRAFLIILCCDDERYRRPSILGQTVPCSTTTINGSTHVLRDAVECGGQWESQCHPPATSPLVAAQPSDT

| EC50 [1] | SMILES | also measured |
| --- | --- | --- |
| 1.1 to 5 nM | CC(C)(O)CN1CCC(F)(CNC(=O)c2cc(Cl)c(N)c3c2OCCC3)CC1 [Example 43, 5-Amino-6-chloro-N-{[4-fluoro-1-(2-hydroxy-2-methylpropyl)-4-piperidinyl]methyl}chroman-8-carboxamide] | – |
| ≤ 1 nM | CC(C)(O)CN1CCC(CNC(=O)c2cc(Br)c(N)c3c2OCCC3)CC1 [Example 46, 5-Amino-6-bromo-N-{[1-(2-hydroxy-2-methylpropyl)-4-piperidinyl]methyl}chroman-8-carboxamide L(+)-tartarate] | – |
| – | CC(C)(O)CN1CCC(F)(CNC(=O)c2cc(Br)c(N)c3c2OCCC3)CC1.O=C(O)C(O)C(O)C(=O)O [Example 48, 5-Amino-6-bromo-N-{[4-fluoro-1-(2-hydroxy-2-methylpropyl)-4-piperidinyl]methyl}chroman-8-carboxamide L(+)-tartarate] | Exploration time mean ± S.E.M, Familiar object [2]: 7.02 ± 0.76 s; Exploration time mean ± S.E.M, Novel object [2]: 13.80 ± 1.74 s; Inference [2]: Active; AUC(0-t) ([3]; 1 mg/kg, intravenous (bolus)): 211 ± 41 ng·h/mL; half-life ([3]; 1 mg/kg, intravenous (bolus)): 1.5 h; bioavailability ([3]; 3 mg/kg oral vs 1 mg/kg intravenous): 35 ± 5%; AUC(0-t) ([3]; 3 mg/kg, oral (gavage)): 224 ± 33 ng·h/mL; Cmax ([3]; 3 mg/kg, oral (gavage)): 167 ± 20 ng/mL; Tmax ([3]; 3 mg/kg, oral (gavage)): 0.31 h; half-life ([3]; 3 mg/kg, oral (gavage)): 1 h; Kp [4]: 1 ± 0.16 |
| 1.1 to 5 nM | CC(C)(O)CN1CCC(CNC(=O)c2cc(Cl)c(N)c3ccoc23)CC1 [Example 49, 4-Amino-5-chloro-N-{[1-(2-hydroxy-2-methylpropyl)-4-piperidinyl]methyl}benzofuran-7-carboxamide L(+)-tartarate] | – |
| 10.1 to 20 nM | CC(C)(O)CN1CC2C(CNC(=O)c3cc(Cl)c(N)c4ccoc34)C2C1 (stereo not drawn) [Example 51, 4-Amino-5-chloro-N-{[3-(2-hydroxy-2-methylpropyl)-3-azabicyclo[3.1.0]hex-6-yl]methyl}benzofuran-7-carboxamide L(+)-tartarate] | – |
| ≤ 1 nM | Cc1cc2c(N)c(Cl)cc(C(=O)NCC3CCN(CC(C)(C)O)CC3)c2o1 [Example 52, 4-Amino-5-chloro-2-methyl-N-{[1-(2-hydroxy-2-methylpropyl)-4-piperidinyl]methyl}benzofuran-7-carboxamide L(+)-tartarate] | – |
| 5.1 to 10 nM | Cc1cc2c(N)c(Cl)cc(C(=O)NCC3C4CN(CC(C)(C)O)CC34)c2o1 (stereo not drawn) [Example 54, 4-Amino-5-chloro-2-methyl-N-{[3-(2-hydroxy-2-methylpropyl)-3-azabicyclo[3.1.0]hex-6-yl]methyl}benzofuran-7-carboxamide] | – |
| ≤ 1 nM | CC(C)(F)CN1CCC(CNC(=O)c2cc(Cl)c(N)c3c2OCCC3)CC1 [Example 55, 5-Amino-6-chloro-N-{[1-(2-fluoro-2-methylpropyl)-4-piperidinyl]methyl}chroman-8-carboxamide] | – |
| 5.1 to 10 nM | CC(C)(F)CN1CCC(F)(CNC(=O)c2cc(Cl)c(N)c3c2OCCC3)CC1 [Example 57, 5-Amino-6-chloro-N-{[1-(2-fluoro-2-methylpropyl)-4-fluoro-4-piperidinyl]methyl}chroman-8-carboxamide L(+)-tartarate] | – |
| ≤ 1 nM | CC(C)(CO)CN1CC2C(CNC(=O)c3cc(Cl)c(N)c4c3OCCC4)C2C1 (stereo not drawn) [Example 58, 5-Amino-6-chloro-N-{[3-(3-hydroxy-2,2-dimethylpropyl)-3-azabicyclo[3.1.0]hex-6-yl]methyl}chroman-8-carboxamide L(+)-tartarate] | – |
| ≤ 1 nM | Cc1cc2c(N)c(Cl)cc(C(=O)NCC3CCN(CC(C)(C)CO)CC3)c2o1 [Example 59, 4-Amino-5-chloro-2-methyl-N-{[1-(3-hydroxy-2,2-dimethylpropyl)-4-piperidinyl]methyl}benzofuran-7-carboxamide] | – |
| ≤ 1 nM and 1.1 to 5 nM | COCC(C)(C)CN1CC2C(CNC(=O)c3cc(Cl)c(N)c4c3OCCC4)C2C1 (stereo not drawn) [Example 60, 5-Amino-6-chloro-N-{[3-(3-methoxy-2,2-dimethylpropyl)-3-azabicyclo[3.1.0]hex-6-yl]methyl}chroman-8-carboxamide] | – |
| 1.1 to 5 nM | COCCCN1CC2C(CNC(=O)c3cc(Cl)c(N)c4c3OCC4)C2C1 (stereo not drawn) [Example 62, 4-Amino-5-chloro-N-{[3-(3-methoxypropyl)-3-azabicyclo[3.1.0]hex-6-yl]methyl}-2,3-dihydrobenzofuran-7-carboxamide oxalate] | – |
| 5.1 to 10 nM | COCCCN1CC2C(CNC(=O)c3cc(Cl)c(N)c4ccoc34)C2C1 (stereo not drawn) [Example 63, 4-Amino-5-chloro-N-{[3-(3-methoxypropyl)-3-azabicyclo[3.1.0]hex-6-yl]methyl}benzofuran-7-carboxamide hydrochloride] | – |
| 1.1 to 5 nM | COCCCN1CC2C(CNC(=O)c3cc(Cl)c(N)c4cc(C)oc34)C2C1 (stereo not drawn) [Example 64, 4-Amino-5-chloro-2-methyl-N-{[3-(3-methoxypropyl)-3-azabicyclo[3.1.0]hex-6-yl]methyl}benzofuran-7-carboxamide hydrochloride] | – |
| 10.1 to 20 nM | COCCCN1CC2C(CNC(=O)c3cc(Br)c(N)c4c3OCC4)C2C1 (stereo not drawn) [Example 65, 4-Amino-5-bromo-N-{[3-(3-methoxypropyl)-3-azabicyclo[3.1.0]hex-6-yl]methyl}-2,3-dihydrobenzofuran-7-carboxamide oxalate] | – |
| 1.1 to 5 nM | Nc1c(Cl)cc(C(=O)NCC2CCN(CCF)CC2)c2c1CCCO2 [Example 66, 5-Amino-6-chloro-N-{[1-(2-fluoroethyl)-4-piperidinyl]methyl}chroman-8-carboxamide] | – |
